Test results reported in patent publication US4138485A, “Phenylalanine derivatives” (Kyowa Hakko Kogyo Kabushiki Kaisha, priority 1976, dated 1979).

Key:
Cholesterol in the serum = assay: Cholesterol-lowering activity on normal rats of Wistar strain (serum cholesterol, liver weight); assay type: in vivo, rats (male Wistar strain); details: 0.3% in diet; for B - Ratio of decrease of liver weight: continuous administration for 4 days; for C - Ratio of decrease of cholesterol / D - Ratio of increase of liver weight: continuous administration for 14 days
Procedure: (3) Cholesteral-lowering activity on normal rats of Wistar strain:
(i) 22 Groups, each consisting of 5 rats (male Wistar strain, weight -- 150 to 180 g) were used for the test and control groups. After this, the blood samples were collected by decapitation and then the corpuscle was removed by centrifugation. Cholesterol in the serum was determined by Zurkowski's method modified by Shibata and also the liver was excised and weighed. The results are shown in Table 4 wherein the ratio of 100% denotes the amount of chloresterol and the weight of the liver of normal rats fed with powdery diet without the addition of the compound.

[1] = system: cholesterol and triglyceride in the serum; assay: Lipid lowering activity in cynomolgus monkeys; assay type: in vivo, cynomolgus monkeys (male, born in Malaysia); details: 100 mg/kg/day oral, 10 days; for Decrease Ratio of Cholesterol / Decrease Ratio of Triglyceride: average of 3 times cross-over
Procedure: (6) Lipid lowering activity in cynomolgus monkeys:
6 cynomolgus monkeys (male, born in Malaysia, weight -- 2.5 to 3.9 kg) were used for this test. All monkies were breeded in individual cages at a temperature from 23° to 25° C. and fed with a solid diet for monkey (available from Oriental Yeast K.K., Japan) and sweet potatoes every morning and with apples and bananas from time to time. The monkeys were divided into 3 groups, each consisting of 2 monkeys, to orally and compulsively administer the test compound in an amount of 100 mg/kg/day once in every morning for 10 days. At 11 days after the first administration, before feeding the diet in early morning blood samples were collected from the saphenae of the monkeys to determine cholesterol and triglyceride in a similar manner to that described above. The ratio of lowering cholesterol (RCL) or triglyceride (RLT) was calculated by the following formula. [formula] wherein A is the average amount of the cholesterol or triglyceride in the serum before administration, and B is the corresponding amont after administration for 10 days.
After an interval of 5 weeks, another compound was administered to determine cholesterol or triglyceride in a similar manner to that described above. After a further interval of 5 weeks, a similar procedure was repeated by using another compound to determine cholesterol or triglyceride.

[2] = system: glycerol induced hyperlipemia; assay: Lipid lowering effects on glycerol induced hyperlipemia in rats; assay type: in vivo, rats (male Wistar strain); details: 0.25% in diet; for Cholesterol / Cholesterol, Ratio of decrease / Triglyceride / Triglyceride, Ratio of decrease: serum, 15% glycerol in water
Procedure: (5) Lipid lowering effects on glycerol induced hyperlipemia in rats: The test was carried out in a similar method to that by […] et al [Life Science, 3, 1021 (1964)] . A group consisting of 10 rats (male Wistar strain, weight - 190 to 210 g) was used for each of the test and control groups. Hyperlipemia occurred by feeding the rats ad libitum with water containing 15% (by volume) of glycerol. […] After this, the blood samples were collected by decapitation and the serum was separated by centrifugation.

[3] = system: hyperlipemia induced by Triton; assay: Cholesterol-lowering activity on hyperlipemia induced by Triton in mice; assay type: in vivo, mice (male dd-strain); details: Mus musculus, po, 43 h, read-out: Ratio of the reduction of cholesterol
Procedure: (2) Cholesterol-Lowering activity on hyperlipemia induced by Triton in mice:
38 Groups, each consisting of 9 mice (male dd-strain, weight -- 19 to 21 g), were used for the test and control groups. […] Immediately after the administration and also after 20 hours from the administration of Triton, the mice were orally administered with 100 mg/kg of the compound shown in Table 3. 43 hours after the administration of Triton, the blood samples were collected by decapitation and then the corpuscle was removed by centrifugation. Cholesterol in the serum was determined by Zurkowski's method modified by Shibata (color of the test solution was developed by using sulfoalicyclic acid, acetic acid and sulfuric acid and the optical density of the solution was determined at 620 mμ.

[4] = system: hyperlipemia induced by Triton; assay: Effect on hyperlipemia induced by Triton in rats: activity in the decreasing phase; assay type: in vivo, rats (male Wistar strain); details: for activity in the decreasing phase (in words): compared with Clofibrate; for Cholesterol / Cholesterol, Ratio of decrease / Triglyceride / Triglyceride, Ratio of decrease: serum, decreasing phase, 200 mg/kg oral 25 hours after Triton, sampled at 30 hours
Procedure: (§1) (4) Effect on hyperlipemia induced by Triton in rats:
(§2) 3 Groups, each consisting of 9 rats (male Wistar strain, weight -- 200 to 240 g) fasted for 24 hours were used for this test. Each rat was administered intravenously with 200 mg/kg of Triton (WR-1339), followed by oral administration of 200 mg/kg of the compounds shown in Table 6. After 20 hours from the administration, the blood samples were collected by decapitation. Cholesterol and triglyceride in the serum were determined in a similar manner to that used in (2, ii) to give the results shown in Table 6.
(II) Activity in the decreasing phase:
Hyperlipemia occurred by administering Triton (WR-1339) in a similar manner to that in (i). After 25 hours, 200 mg/kg of the compounds were orally administered to the rats. After 30 hours from the injection of Triton, the blood samples were collected by decapitation.

[5] = system: hyperlipemia induced by Triton; assay: Effect on hyperlipemia induced by Triton in rats: activity in the increasing phase; assay type: in vivo, rats (male Wistar strain); details: for activity in the developing phase (in words): Clofibrate, Compounds 1 and 2 compared with each other; for Cholesterol / Cholesterol, Ratio of decrease / Triglyceride / Triglyceride, Ratio of decrease: serum, increasing phase, 200 mg/kg oral, 20 hours
Procedure: as §1
(i) Activity in the increasing phase:
as §2

Acute toxicity in rats = details: in vivo; rat, oral administration, after one week; read-out: Acute Toxicity (LD50), C
Procedure: (§3) (1) Acute toxicity and tonic convulsion in hind paw:
(§4) The acute toxicity and tonic convulsion occured by stimulus by hand touch were determined in the following manner to give the results shown in Table 2.
(b) Acute toxicity in rats:
28 Groups, each consisting of 5 rats (male Wistar strain, weight -- 200 g), were used for the test and control groups. The compounds shown in Table 2 were orally administered to the rats. After one week, the survival ratio was measured.

Acute toxicity in mice = details: in vivo, mouse, after one week
Procedure: as §3, §4
(a) Acute toxicity in mice:
38 Groups, each consisting of 5 mice (male dd-strain, weight -- 18 to 24 g), were used for the test and control groups. The compounds shown in Table 2 were administered orally or intraperitoneally to the mice. After one week, the survival ratio was measured.

[6] = system: Triglyceride, phospholipid and free fatty acid in the serum; assay: Determination of triglyceride, phospholipid and free fatty acid in the serum of normal rats; assay type: in vivo, rats (Wistar strain); details: for A - Ratio of decrease of triglyceride / B - Ratio of decrease of phospholipid / C - Ratio of decrease of free fatty acid: continuous administration for 4 days; for lowering activity on lipids other than cholesterol (in words): normal rats, 4 days
Procedure: (ii) Determination of triglyceride, phospholipid and free fatty acid in the serum of normal rats of Wistar strain: Clofibrate and Compounds 1 and 2 were tested in a similar manner to that described in (i). Triglyceride, phospholipid and free fatty acid in the serum were determined in the following manner to give the results shown in Table 5. (a) Determination of triglyceride: Triglyceride was determined by acetylacetone method [Kazuo Matsumiya et al "Rinsho Byori", Vol. 18, page 383 (1970), Japan] in the following manner. Isopropyl alcohol was added to the test solution of the serum to extract triglyceride which was then saponified with potassium hydroxide to give glycerol. The glycerol was oxidized by using sodium salt of methaperiodic acid to convert it into formaldehyde. Color of the test solution was developed by acetylacetone and the optical density at 420 mμ was determined. (b) Determination of phospholipid: "Phospholipid Test Wako", a reagent available from Wako Junyaku K.K., Japan, was used for the determination of phospholipid in the following manner according to a similar manner to that described in "Rinsho Byori", Vol. 17, page 389 (1969), Japan, by Atsuo […] et al. Trichloroacetic acid was added to the serum to give precipitates of lipoprotein which were then added with sulfuric acid and potassium permanganate to form phosphoric acid. Color of the test solution was developed by ammonium molybdate and the optical density was determined at 660 mμ. (c) Determination of free fatty acid: Laurell's method [CLin. Chim. Acta. 16, 57 (1967)] was used for determination in the following manner. […] After shaking for 5 minutes, the solution was centrifuged. 5 Ml of the supernatant was put into another tube and was added with 2 ml of copper reagent. […] The optical density at 550 mμ was determined.

Mouse = assay: Tonic convulsion of hind paw of mice (stimulus by hand touch); assay type: in vivo, mice (male dd-strain); details: oral, D = 1000 mg/kg, 30 to 360 minutes
Procedure: as §3, §4
(c) Tonic convulsion of hind paw of mice:
38 Groups, each consisting of 5 mice (male dd-strain, weight -- 18 to 24 g), were used for the test and control groups. The compounds shown in Table 2 were orally administered to the mice. At 30, 60, 120, 180 and 360 minutes after the administration, stimulus by hand touch was given to the mice and the tonic convulsion was observed.

[7] = ip, intraperitoneal administration, read-out: Acute Toxicity (LD50), B
[8] = oral administration, read-out: Acute Toxicity (LD50), A

| Structure (SMILES) | B - Ratio of decrease of liver weight (Cholesterol in the serum) | C - Ratio of decrease of cholesterol (Cholesterol in the serum) | D - Ratio of increase of liver weight (Cholesterol in the serum) | cholesterol-lowering activity (in words) [1] | Decrease Ratio of Cholesterol [1] | Decrease Ratio of Triglyceride [1] | activity on lowering triglyceride and cholesterol (in words) [2] | Cholesterol [2] | Cholesterol, Ratio of decrease [2] | Triglyceride [2] | Triglyceride, Ratio of decrease [2] | inhibition in vivo at 100 mg/kg [3] | activity in the decreasing phase (in words) [4] | Cholesterol [4] | Cholesterol, Ratio of decrease [4] | Triglyceride [4] | Triglyceride, Ratio of decrease [4] | activity in the developing phase (in words) [5] | LD50 at 168 h (Acute toxicity in mice; [8]) | Tonic convulsion (Mouse) | also measured |
| --- | --- | --- | --- | --- | --- | --- | --- | --- | --- | --- | --- | --- | --- | --- | --- | --- | --- | --- | --- | --- | --- |
| Cc1ccc(CSC(=O)N[C@@H](Cc2ccccc2)C(=O)O)cc1 [Compound 1, N-(4-methylbenzylthiocarbonyl)-L-phenylalanine] | 14.8% | 26.1% | 33.1% | have a cholesterol-lowering activity | 12.2% | 10.8% | have an activity on lowering triglyceride and cholesterol | 44.5 mg/dL | 21.0% | 148 mg/dL | 70.0% | 55% | superior to that of Clofibrate | 103 mg/dL | 30.7% | 141 mg/dL | 59.4% | substantially equal | > 4000 mg/kg |  | Cholesterol [5]: 198 mg/dL; Cholesterol, Ratio of decrease [5]: 22.7%; Triglyceride [5]: 940 mg/dL; Triglyceride, Ratio of decrease [5]: 29.7%; LD50 at 168 h (Acute toxicity in rats): > 200 mg/kg; LD50 at 168 h (Acute toxicity in mice; [7]): > 100 mg/kg; A - Ratio of decrease of triglyceride [6]: 42.0%; B - Ratio of decrease of phospholipid [6]: 13.8%; C - Ratio of decrease of free fatty acid [6]: 27.0%; lowering activity on lipids other than cholesterol (in words) [6]: have a lowering activity on lipids other than cholesterol |
| COC(=O)[C@H](Cc1ccccc1)NC(=O)SCc1ccc(C)cc1 [Compound 2, N-(4-methylbenzylthiocarbonyl)-L-phenylalanine methylester] | 8.2% | 17.5% | 3.9% | have a cholesterol-lowering activity | 9.7% | -7.3% | have an activity on lowering triglyceride and cholesterol | 47.5 mg/dL | 15.7% | 261 mg/dL | 41.3% | 38% | superior to that of Clofibrate | 116 mg/dL | 22.2% | 205 mg/dL | 40.9% | substantially equal | > 4000 mg/kg |  | Cholesterol [5]: 202 mg/dL; Cholesterol, Ratio of decrease [5]: 21.3%; Triglyceride [5]: 729 mg/dL; Triglyceride, Ratio of decrease [5]: 45.5%; LD50 at 168 h (Acute toxicity in rats): > 900 mg/kg; LD50 at 168 h (Acute toxicity in mice; [7]): > 100 mg/kg; A - Ratio of decrease of triglyceride [6]: 2.1%; B - Ratio of decrease of phospholipid [6]: 10.9%; C - Ratio of decrease of free fatty acid [6]: 21.8%; lowering activity on lipids other than cholesterol (in words) [6]: have a lowering activity on lipids other than cholesterol |
| Cc1ccccc1CSC(=O)N[C@@H](Cc1ccccc1)C(=O)O [Compound 20, N-(2-methylbenzylthiocarbonyl)-L-phenylalanine] |  |  |  |  |  |  |  |  |  |  |  | 47% |  |  |  |  |  |  | > 1000 mg/kg | + |  |
| COC(=O)[C@H](Cc1ccccc1)NC(=O)SCc1ccccc1C [Compound 21, N-(2-methylbenzylthiocarbonyl)-L-phenylalanine methylester] |  |  |  |  |  |  |  |  |  |  |  | 43% |  |  |  |  |  |  | > 1000 mg/kg | + |  |
| Cc1cccc(CSC(=O)N[C@@H](Cc2ccccc2)C(=O)O)c1 [Compound 22, N-(3-methylbenzylthiocarbonyl)-L-phenylalanine] |  |  |  |  |  |  |  |  |  |  |  | 46% |  |  |  |  |  |  | > 1000 mg/kg | + |  |
